Data: patent US9700546B2, “Trivalent chromium compounds, compositions and methods of use” (INTERHEALTH NUTRACEUTICALS, INC., priority 2006, dated 2017)
Like-named read-outs stand apart in the source and are kept apart here. Blank lines part the entries; values can stand above or below the compound they belong to.

How the values were obtained:
yeast = conditions: Cooper et al. 1984; cited from earlier work
Obese Zucker rats [1] = experiment: In vivo assessment in obese Zucker rats: other vascular inflammation markers (cAMP, TNFα, IL-6, OxyDNA); conditions: obese Zucker rats, daily 400 μg Cr(III)/kg, 8 weeks, mean ± SE; for OxyDNA: oxidative DNA damage
Obese Zucker rats [2] = experiment: In vivo assessment in obese Zucker rats: key biological parameters (fasting glucose, HbA1c, vitamin C, GSH, RBC lipid peroxidation); conditions: obese Zucker rats, daily 400 μg Cr(III)/kg, 8 weeks, mean; for RBC Lipid Peroxidase: malondialdehyde by thiobarbituric acid; for Fasting Glucose: fasted overnight; for Vitamin C: plasma
Obese Zucker rats [3] = experiment: In vivo assessment in obese Zucker rats: clinical chemistry (AP, BUN, CRT, AST, ALT); conditions: obese Zucker rats; mean ± SE
Obese Zucker rats [4] = experiment: In vivo assessment in obese Zucker rats: blood lipid profile (total cholesterol, triglycerides, HDL); conditions: daily 400 μg Cr(III)/kg, 8 weeks, mean
Obese Zucker rats [5] = experiment: In vivo assessment in obese Zucker rats: vascular inflammation markers (MCP-1, CRP, RBP-4, leptin, ICAM, adiponectin); conditions: obese Zucker rats, daily 400 μg Cr(III)/kg, 8 weeks, mean; for Adiponectin / CRP / MCP-1 / ICAM: plasma, ELISA
[6] = cited from earlier work; for chromium absorbed (average): men and women
Obese Zucker rats [7] = experiment: In vivo assessment in obese Zucker rats: body weight and food intake; conditions: obese Zucker rats, daily 400 μg Cr(III)/kg, mean; for Food Intake 5 wks: at 5 weeks; for Food Intake 7 wks: at 7 weeks
insulin = conditions: in vitro; cited from earlier work
[8] = typical; cited from earlier work
Obese Zucker rats [9] = conditions: rat, in vivo

Compound: Cr-nicotinic acid-glycine
glucose tolerance factor activity in yeast assay (yeast): significant activity

Compound: NC(C[S-])C(=O)[O-].NC(C[S-])C(=O)[O-].[Cr+3] (stereo not shown) [Cr(cysteine)2^−]
glucose tolerance factor activity in yeast assay (yeast): not active

Compound: NC(=O)CCC(N)C(=O)[O-].NC(=O)CCC(N)C(=O)[O-].O.O.[Cr+3] (stereo not shown) [Cr(glutamine)2(H2O)2^+]
glucose tolerance factor activity in yeast assay (yeast): significant activity

Compound: Chromium Histidinate [CrHis, reference compound]
IL-6 (Obese Zucker rats [1]): 91.98 ± 8.19 pg/mL
TNFα (Obese Zucker rats [1]): 24.72 ± 5.24 pg/mL
cAMP (Obese Zucker rats [1]): 28.07 ± 2.83 pmol/mL
OxyDNA (Obese Zucker rats [1]): 57.72 ± 2.86 ng/mL
RBC Lipid Peroxidase (Obese Zucker rats [2]): 1.91 nmol/mL
Fasting Glucose (Obese Zucker rats [2]): 592.01 mg/dL
GSH (Obese Zucker rats [2]): 4.68 µmol/g
HbA1c (Obese Zucker rats [2]): 15.89%
ALT (Alanine Aminotransferease) (Obese Zucker rats [3]): 168.25 u/L
AP (Alkaline phosphatase) (Obese Zucker rats [3]): 35.25 u/L
AST (Aspartate Aminotransferase) (Obese Zucker rats [3]): 248.00 u/L
Anion Gap (Obese Zucker rats [3]): 29.75
BUN (Blood Urea Nitrogen) (Obese Zucker rats [3]): 19.50 mg/dL
BUN/CRT Ratio (Obese Zucker rats [3]): 48.75
CRT (Creatinine) (Obese Zucker rats [3]): 0.40 mg/dL
Total Bilirubin (Obese Zucker rats [3]): 0.10 mg/dL
HDL (Obese Zucker rats [4]): 66.90 mg/dL
Total Chol/HDL (Obese Zucker rats [4]): 2.86 ratio
Total Cholesterol (Obese Zucker rats [4]): 189.62 mg/dL
Triglyceride (Obese Zucker rats [4]): 503.93 mg/dL
Leptin (Obese Zucker rats [5]): 436.96 pg/mL
RBP-4 (Obese Zucker rats [5]): 51112.60 ng/mL
Adiponectin (Obese Zucker rats [5]): 11455.87 ng/mL
CRP (Obese Zucker rats [5]): 710.26 ng/mL
MCP-1 (Obese Zucker rats [5]): 2974.79 pg/mL
chromium absorbed (average) [6]: 3.1 µg
absorbed better than chromium picolinate ([6]; relative to chromium picolinate): at least 50%

Compound: O=C(O)c1cccnc1 [Niacin, reference compound]
Food Intake 5 wks (Obese Zucker rats [7]): 37.92 g/day
Food Intake 7 wks (Obese Zucker rats [7]): 39.67 g/day
IL-6 (Obese Zucker rats [1]): 93.76 ± 1.60 pg/mL
cAMP (Obese Zucker rats [1]): 34.27 ± 1.47 pmol/mL
OxyDNA (Obese Zucker rats [1]): 47.31 ± 2.78 ng/mL
RBC Lipid Peroxidase (Obese Zucker rats [2]): 1.82 nmol/mL
Fasting Glucose (Obese Zucker rats [2]): 543.00 mg/dL
GSH (Obese Zucker rats [2]): 5.32 µmol/g
HbA1c (Obese Zucker rats [2]): 15.60%
Vitamin C (Obese Zucker rats [2]): 0.15 mg %
ALT (Alanine Aminotransferease) (Obese Zucker rats [3]): 126.17 u/L
BUN (Blood Urea Nitrogen) (Obese Zucker rats [3]): 19.33 mg/dL
CRT (Creatinine) (Obese Zucker rats [3]): 0.40 mg/dL
HDL (Obese Zucker rats [4]): 70.33 mg/dL
Total Cholesterol (Obese Zucker rats [4]): 192.17 mg/dL
Triglyceride (Obese Zucker rats [4]): 486.67 mg/dL
Leptin (Obese Zucker rats [5]): 363.96 pg/mL
RBP-4 (Obese Zucker rats [5]): 53945.00 ng/mL
Adiponectin (Obese Zucker rats [5]): 8872.00 ng/mL
CRP (Obese Zucker rats [5]): 548.27 ng/mL
ICAM (Obese Zucker rats [5]): 16855.83 pg/mL
MCP-1 (Obese Zucker rats [5]): 1365.66 pg/mL
potentiation of the action of insulin (insulin): virtually no effect

Compound: [Cl][Cr]([Cl])[Cl] [chromium chloride]
absorbed by the body [8]: less than one
chromium absorbed (average) [6]: 0.4 µg

AP (Alkaline phosphatase) (Obese Zucker rats [9]): 40.06 u/L
Anion Gap (Obese Zucker rats [9]): 29.61
BUN (Blood Urea Nitrogen) (Obese Zucker rats [9]): 20.22 mg/dL
BUN/CRT Ratio (Obese Zucker rats [9]): 49.72
CRT (Creatinine) (Obese Zucker rats [9]): 0.41 mg/dL
Total Bilirubin (Obese Zucker rats [9]): 0.07 mg/dL
Compound: Chromium Picolinate [CrP, reference compound]
Food Intake 5 wks (Obese Zucker rats [7]): 35.85 g/day
Food Intake 7 wks (Obese Zucker rats [7]): 40.79 g/day
IL-6 (Obese Zucker rats [1]): 94.13 ± 2.47 pg/mL
TNFα (Obese Zucker rats [1]): 33.66 ± 5.27 pg/mL
cAMP (Obese Zucker rats [1]): 29.17 ± 2.00 pmol/mL
OxyDNA (Obese Zucker rats [1]): 49.02 ± 2.31 ng/mL
RBC Lipid Peroxidase (Obese Zucker rats [2]): 2.05 nmol/mL
Fasting Glucose (Obese Zucker rats [2]): 527.28 mg/dL
GSH (Obese Zucker rats [2]): 4.84 µmol/g
HbA1c (Obese Zucker rats [2]): 15.54%
Vitamin C (Obese Zucker rats [2]): 0.15 mg %
HDL (Obese Zucker rats [4]): 66.01 mg/dL
Total Chol/HDL (Obese Zucker rats [4]): 3.02 ratio
Total Cholesterol (Obese Zucker rats [4]): 191.80 mg/dL
Triglyceride (Obese Zucker rats [4]): 625.35 mg/dL
ALT (Alanine Aminotransferease) (Obese Zucker rats [9]): 179.78 u/L
AST (Aspartate Aminotransferase) (Obese Zucker rats [9]): 362.44 u/L
Leptin (Obese Zucker rats [5]): 399.55 pg/mL
RBP-4 (Obese Zucker rats [5]): 49236.91 ng/mL
Adiponectin (Obese Zucker rats [5]): 11229.84 ng/mL
CRP (Obese Zucker rats [5]): 654.78 ng/mL
ICAM (Obese Zucker rats [5]): 20428.47 pg/mL
MCP-1 (Obese Zucker rats [5]): 4549.99 pg/mL
chromium absorbed (average) [6]: 1.8 µg
